Consider two molecules from patent US20030124742A1, “Conjugates targeted to target receptors” (priority 2001, published 2003).

Converted amounts (≈) assume the structure as drawn. Where two headings read alike, the source gives them in different places. Where no end group is shown, it is not given here.

In series [1] the test system is human T lymphoma cell line HUT 78. In words: In vitro cytotoxicity assay (MTS), HUT 78. It is filed as cell-based. The conditions noted are these: HuT78, 48 h, DXR equivalent concentration, about two days incubation, read-out: IC50 against HUT 78. How it is done: (§1) On the day prior to starting the assay, cells were fed with fresh tissue culture medium (RPMI 1640+10% FCS for most cell lines, use other media as appropriate). A conjugate test solution was prepared in culture medium, with a concentration that is twice the final desired test concentration. Typically with doxorubicin (DXR) conjugates, a DXR equivalent concentration range of 100 μM down to 0.1 μM, using 1:2 serial dilutions is used. All concentrations are calculated and reported in terms of final DXR concentration (as opposed to total conjugate concentration).
(§2) The cell suspension is prepared at a concentration of 1-2×10^6 cells/Ml in culture medium. To each well of a 96-well, flat-bottom, microtiter plate (Falcon Microtest III assay plates, No. 3872) was added 50 μl of the cell suspension prepared above. A 50 μl of conjugate solution was added to each well of the assay plate. […]
(§3) The following blank and control wells were prepared: Plate Blank=100 μl of tissue culture medium only; cell control=50 μl cell suspension+50 μl tissue culture medium; and conjugate Blanks=50 μl 2× conjugate solution +50 μl tissue culture medium. […] Using a 96-well microplate reader, the absorbance of each well was measured at 490 nm. For each conjugate test concentration, the % cytotoxicity was calculated using the following formula: % Cytotoxicity=(1−[Abs. Conjugate Test Group/Abs. Cell Control])×100.

Series [2] concerns human ovarian cancer cell line A-2780R. In words: In vitro cytotoxicity assay (MTS), A-2780R. Type of series: cell-based. Particulars: DXR equivalent concentration, read-out: IC50 against A-2780R. How it is done: as §1, §2, §3
For the next series, the system named is HUT 78 tumor. In words: In vivo efficacy, murine model of human cutaneous T-cell lymphoma (HUT 78). On the procedure: In vitro cytotoxicity against human T-cell lymphoma cell line HUT 78 and human ovarian cancer cell lines A-2780R, as well as in vitro screening on several fresh human tumor specimens from different types of cancer were evaluated. The in vivo efficacy was determined using murine models for human cutaneous T-cell lymphoma. Free doxorubicin and liposomal doxorubicin (DOXIL®) were used as controls for the experiments. The “WL00” moiety comprises the GFLG peptide (SEQ ID NO 1).
The efficacy of mpPEG-WL00-DXR in vivo was also evaluated. A single dose treatment of 30 mg/kg was used for the conjugate and DOXIL®, whereas 15 mg/kg (equivalent doxorubicin dose) was used for unconjugated DXR. […] The percent tumor growth inhibition at day 15 for CA 1043-136, TM 1192-029-1 and TM 1192-038 was 84, 79 and 84, respectively.
In addition, a DXR conjugate with 8.7% DXR loading (TM 1192-107-1) was evaluated in both human T-lymphoma cell line HUT 78 and ovarian cancer cell line A-2780R animal tumor model. […] It is also worth noting that the conjugate CA 1043-36 was very active after two years of storage as a lyophilized powder at 4° C.

Series [3] deals with human ovarian cancer cell line A-2780R tumor. Kind of series: In vivo efficacy, murine tumor model of subcutaneously implanted A-2780R. Particulars: 30 mg/kg. On the procedure: Efficacy of mpPEG-WL00-DXR conjugate was also compared with DOXIL® in a murine tumor model generated by subcutaneously implanting human ovarian cancer cell line A-2780R. […] At day 21, the tumor growth inhibition in the animal treated with TM 1192-029-1 animal was 92%. The unconjugated DXR at 30 mg/kg gave 70% tumor growth inhibition.

The nature of series [4]: Body distribution of DXR in mice bearing HuT 78 xenografts. It is filed as in vivo, NIH III mice. The conditions noted are these: 2.5 mg/kg, 72 hours. On the procedure:
NIH III mice bearing HuT 78 xenografts were administered with conjugated DXR and free DXR at a dose of 2.5 mg/kg of DXR equivalent. After 72 hours, the mice were sacrificed and tissue samples were prepared for analysis for free or total DXR.
The total amount of DXR was determined after hydrolysis of free and conjugated DXR to generate aglycon. The amount of bound conjugate was computed as the difference between total and free DXR.

For series [5], the system named is PC3 human prostate carcinoma cell line. In words: EDR assay, PC3 (storage stability of stock solutions). Type of series: cell-based. On the procedure: (§4) The PC3 prostate carcinoma, as well as the MCF7-WT and SK-BR3 breast carcinoma cell lines were obtained from ATCC and maintained in RPMI 1640 (GibcoBRL, Grand Island, N.Y.) supplemented with 10% fetal bovine serum (FBS, Omega Scientific, Tarzana, Calif.), 100 IU/ml penicillin, 100 μg/ml streptomycin, and 2 mM L-glutamine (Irvine Scientific, Irvine, Calif.) (complete growth medium). Cells were harvested with 0.25% trypsin (GibcoBRL) after washing twice with phosphate-buffered saline (PBS, Irvine Scientific), then washed with complete medium, counted and checked for viability using trypan blue. Different passages of the cell line were tested for their resistance to WL68-DXR vs. native doxorubicin to evaluate the stability of WL68-DXR under storage at −70° C. […]
(§5) 103 mg of 20 KD mpPEG-8PA-WL68-DXR (further referred to as WL-68-DXR) was dissolved in 10.3 ml of sterile PBS, aliquoted in plastic 1 ml tubes and kept at −70° C. until analysis. […] Positive controls were determined using at least 2 wells treated with an extremely high dose of cisplatin. […]
(§6) Cells were incubated with drugs under standard culture conditions for five days. […] The radioactivity trapped on the filters was counted with a Beckman scintillation counter. The fraction of surviving cells was determined by comparing ^3H-TdR incorporation in treated (experimental points) and untreated (negative control) wells. […]

For series [6], the system named is MCF7-WT (HER-2 negative) breast carcinoma cell line. Kind of series: EDR assay, MCF7-WT. It is filed as cell-based. The conditions noted are these: Homo sapiens, 120 h, 5 days of incubation. How it is done: as §4, §5, §6
Series [7] concerns SK-BR3 (HER-2 positive) breast carcinoma cell line. Kind of series: EDR assay, SK-BR3. It is filed as cell-based. Particulars: Homo sapiens, SK-BR-3, 120 h; 5 days of incubation. How it is done: as §4, §5, §6
The subject of series [8] is HER-2-negative fresh breast carcinoma specimens. In words: EDR assay, HER-2-negative fresh breast carcinoma specimens. Type of series: cell-based. Particulars: Homo sapiens, nine specimens. How it is done: (§7) Tumor cells were suspended in 0.12% soft agar in complete medium, and plated at different cell concentrations (typically, 3,000 cells for the cell lines and 15,000 cells per well for fresh tumor specimens) onto a 0.4% agarose underlayer in 24-well plates. Plating cells on agarose underlayers supports the proliferation only of the transformed cells, ensuring that the growth signal stems from the malignant component of the tumor.
(§8) 103 mg of 20 KD mpPEG-8PA-WL68-DXR (further referred to as WL-68-DXR) was dissolved in 10.3 ml of sterile PBS, aliquoted in plastic 1 ml tubes and kept at −70° C. until analysis. The doxorubicin equivalent for the WL68-DXR stock solution was 4.06 μg/ml. […] Positive controls were determined using at least 2 wells treated with an extremely high dose of cisplatin. […]
as §6
(§9) A monoclonal antibody against HER-2 (clone 4E200) was purchased from Neomarkers, Inc. (Fremont, Calif.) and used at 1 μg/ml. Optimal working concentrations and incubation time for the HER-2 antibody have been determined in preliminary experiments. […]

Series [9] relates to HER-2-positive fresh breast carcinoma specimens. Kind of series: EDR assay, HER-2-positive fresh breast carcinoma specimens. The conditions noted are these: Homo sapiens, read-out: IC50, HER-2-positive group. Type of series: cell-based. On the procedure: as §7, §8, §6, §9
Series [10] has as its target T1, HER-2 receptor (human epidermal growth factor receptor-2) (human, UniProt P04626 23-1255).
T1 construct: whole, on cells; Presented on the HER-2-positive SK-Br3 cell line; Raji cells served as the negative control; also called c-erbB-2; neu
Kind of series: 125I-labelled peptide binding to SK-Br3 cells in suspension, cell-bound counts (Example 17). How it is done: WL38 was iodinated by using lodo-Gen method described in herein. Unbound ¹²⁵I was removed by ion-exchange chromatography with MP-1 resin, (BIO-RAD AG). SK-Br3 cells were removed from the flask bottom by the cell scraper, suspended, and centrifuged at 500×g for 1 min. The cell pellet was suspended in the binding buffer (50 mM PBS, 30 mM NaN₃, 0.5% BSA, pH 7.4). The cell suspension (100 μl) containing 500,000 cells were placed into a glass tube and incubated with ¹²⁵I-WL38 peptides at various concentrations. Unbound peptide was removed by centrifugation. Cells were dissolved in 1M NaOH, and applied for ¹²⁵I counting. Binding of the WL38 peptide to Raji cell which were used as a negative control was performed in a similar manner. Non-specific binding of the WL38 to A2870/R cells was determined on the background of unlabeled WL3 8 at concentration 100 μM.

Regarding `COc1cccc2c1C(=O)c1c(O)c3c(c(O)c1C2=O)C[C@@](O)(C(=O)CO)C[C@@H]3O[C@H]1C[C@H](N)[C@H](O)[C@H](C)O1` [unconjugated DXR, doxorubicin], the IC50 in [1] was found to be 2.1 µM; in series [2] it was 14.2 µM; in [5] (336 h, after two weeks of storage at −70° C., read-out: IC50, PC3, after freezing the stock solution), 0.022 µg/mL (≈ 0.0405 µM); in series [5] (read-out: IC50, PC3, before freezing the stock solution), 0.027 µg/mL (≈ 0.0497 µM); in series [6], 0.013 ± 0.004 µg/mL (≈ 0.0239 µM); in series [7], 0.03 ± 0.02 µg/mL (≈ 0.0552 µM). In addition, the concentration for half-maximal inhibition (IC50) in series [8] (average, read-out: IC50 (average), HER-2-negative breast carcinomas) was 0.025 ± 0.025 µg/mL (≈ 0.046 µM); in series [8] (read-out: IC50 (span over specimens), HER-2-negative breast carcinomas), 0.004 to 0.083 µg/mL (≈ 0.00736 to 0.153 µM); in series [9], 0.019 ± 0.02 µg/mL (≈ 0.035 µM). For the same molecule, in the series on HUT 78 tumor (15 mg/kg dose), the deaths entry is “one death out of four animals”. Further, the survival of animals result in the series with HUT 78 tumor (HUT 78 tumor study, 30 mg/kg, study period 21 days) was “five out of five animals died within seven days”. In addition, the “mean tumor growth inhibition at day 15” value with HUT 78 tumor (single dose 15 mg/kg (equivalent doxorubicin dose)) came to 12%. In addition, the tumor growth inhibition in series [3] is listed as 70%. In series [4], the “DXR per gram in tumor, heart and muscle tissues” value is “Approximately equal amounts”.

B1: WL38 peptide (MVKDLSNPSRYL) (peptide)
peptide: MVKDLSNPSRYL
modifications: also: 125I-iodinated, residue not given here
notes: Synthetic HER-2-targeting peptide; also called TT38; 125I-WL38
For B1, in series [10], the binding result is on record as “binds”.

As a reminder, the IC50 is the concentration needed to halve the response being measured.
